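Tested at 5 concentrations; 48 h exposure; 96-well plates; endpoints linearly interpolated, else capped at highest concentration. GI50: concentration for 50% inhibition of growth.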 Activity calls are given as the source filed them. Cut-off read from the data, not from the text of the source: active = GI50 up to about 1.1 µM and inactive = higher.

Here are results for eleven compounds from ChEMBL document CHEMBL1201862, “PubChem BioAssay data set” (2004).

Holding throughout (test): NCI anticancer screen, dose series, 48 h
In assay [1] the test system is A549.
The subject of assay [2] is CAKI-1.
In assay [3] the test system is HL-60.
Assay [4] concerns HOP-92.
Assay [5] concerns HT-29.
The subject of assay [6] is IGROV-1.
Assay [7] concerns M14.
The subject of assay [8] is MDA-MB-231.
Assay [9] relates to NCI-H226.
In assay [10] the test system is NCI-H522.
The test system of assay [11] is OVCAR-5.
For assay [12], the system named is RXF 393.
For assay [13], the system named is SF-268.
Assay [14] deals with SF-295.
Assay [15] deals with SR.
Assay [16] concerns TK-10.
The test system of assay [17] is U-251.
The test system of assay [18] is UACC-62.
Assay [19] deals with Malme-3M.

Turning to `CCCCCCCCCCCCCCCCCCNc1ccn(C2OC(COP(=O)(O)OCCCCCCCCCCCCCCCC)C(O)C2O)c(=O)n1` (stereo unspecified), the GI50 was > 100 µM (inactive) in assay [1]; > 100 µM (inactive) in assay [2]; 58.3 µM (inactive) in [3]; > 100 µM (inactive) in assay [4]; > 100 µM (inactive) in [5]; > 100 µM (inactive) in assay [6]. Besides, the GI50 in [7] is > 100 µM (inactive); in assay [8], > 100 µM (inactive); in assay [9], > 100 µM (inactive); in [10], 51.3 µM (inactive); in assay [11] it was > 100 µM (inactive); in assay [12] it was > 100 µM (inactive). Also, the GI50 in [13], in [14], in [15], in [16], in [17] and in assay [18] was > 100 µM (inactive) each time.
With `O=C(O)c1ccccc1-c1ccccc1C(=O)Nc1ccc2c(c1)Cc1ccccc1-2`, the GI50 in assay [1] was 29.2 µM (inactive); in assay [2], 51.9 µM (inactive); in assay [4], 46.8 µM (inactive); in assay [5], 25.5 µM (inactive); in assay [6] it was 49.3 µM (inactive); in assay [7] it was 21.6 µM (inactive). The GI50 was 60.5 µM (inactive) in [8]; 42.5 µM (inactive) in assay [19]; 67.6 µM (inactive) in [9]; 21.3 µM (inactive) in assay [10]; 21.9 µM (inactive) in assay [11]; 46.7 µM (inactive) in assay [12]. The GI50 in assay [13] was 43.1 µM (inactive); in assay [14], 39.1 µM (inactive); in assay [15], 28.4 µM (inactive); in [16], 45.1 µM (inactive); in assay [17] it was 28.6 µM (inactive); in assay [18], 16.7 µM (inactive).
For `CCN(CC)CCC(=O)c1ccc(Oc2ccc(Cl)cc2)cc1`, the GI50 is > 100 µM (inactive) in [1]; 23.3 µM (inactive) in assay [2]; 21.1 µM (inactive) in assay [3]; 16.2 µM (inactive) in [4]; 21.2 µM (inactive) in assay [5]; 20.4 µM (inactive) in assay [6]. Besides, the GI50 was 15.1 µM (inactive) in assay [7]; 14.5 µM (inactive) in assay [8]; 18 µM (inactive) in assay [19]; 19 µM (inactive) in assay [10]; 16.2 µM (inactive) in assay [11]; 22.3 µM (inactive) in [12]. In addition, the GI50 in assay [13] was 16.7 µM (inactive); in assay [14] it was 18.4 µM (inactive); in assay [15], 20.1 µM (inactive); in assay [16], 18.3 µM (inactive); in [17] it was 16.9 µM (inactive); in assay [18] it was 18.6 µM (inactive).
Turning to `Nc1cc2c(c3ccccc13)C(CCl)CN2C(=O)c1cc2cc(NC(=O)Nc3ccc4[nH]c(C(=O)N5CC(CCl)c6c5cc(N)c5ccccc65)cc4c3)ccc2[nH]1` (stereo unspecified), the GI50 in assay [1] is 0.0478 µM (active); in [2], < 0.01 µM (active); in assay [4], 2.19 µM (inactive); in assay [5], < 0.0176 µM (active); in assay [6], 0.256 µM (active); in assay [7], < 0.0303 µM (active). Moreover, the GI50 in [8] was 0.27 µM (active); in assay [19], 0.412 µM (active); in assay [9] it was 0.275 µM (active); in assay [10], 0.0509 µM (active); in assay [11], 0.612 µM (active); in assay [12], 0.0719 µM (active). Also, the GI50 is 0.0514 µM (active) in assay [13]; 0.0404 µM (active) in assay [14]; < 0.01 µM (active) in [15]; 1.42 µM (inactive) in assay [16]; 0.0573 µM (active) in assay [17]; 0.0634 µM (active) in [18].
As to `COc1cc(C[C@@H](C)N)cc(OC)c1`, the GI50 in assay [1], in assay [2], in [3], in assay [5], in assay [6] and in assay [7] was > 100 µM (inactive) in each case. Besides, the GI50 in [8] is > 100 µM (inactive); in assay [19] it was > 100 µM (inactive); in assay [9] it was > 100 µM (inactive); in assay [10], > 100 µM (inactive); in [11], > 100 µM (inactive); in assay [12], 43.7 µM (inactive). Also, the GI50 in [13], in assay [14], in assay [15], in [16], in assay [17] and in assay [18] was > 100 µM (inactive) in each case.
With `CCOC(=O)OC1C(Br)C2CCC1(C)C2(C)C` (stereo unspecified), the GI50 in assay [1] is 16 µM (inactive); in [3] it was 6.21 µM (inactive); in [4], 13.2 µM (inactive); in assay [5], 6.05 µM (inactive); in assay [6] it was 18.7 µM (inactive); in [7], 12.6 µM (inactive). The GI50 in assay [8] is 11.9 µM (inactive); in [19] it was 16.7 µM (inactive); in [9], 12 µM (inactive); in assay [10] it was 15.2 µM (inactive); in assay [11], 17.7 µM (inactive); in assay [12], 10.9 µM (inactive). Besides, the GI50 in [13] was 13.7 µM (inactive); in assay [14] it was 15.3 µM (inactive); in [15], 2.39 µM (inactive); in assay [16], 14.2 µM (inactive); in assay [17], 13 µM (inactive); in assay [18], 17.7 µM (inactive).
As for `Cc1nc(=O)c2cc(CN(C)c3ccc(C(=O)N[C@@H](CCC(=O)O)C(=O)O)s3)ccc2[nH]1` [RALTITREXED], the GI50 in [1] was 11.9 µM (inactive); in [2], > 100 µM (inactive); in [3] it was 5.92 µM (inactive); in [4], > 100 µM (inactive); in assay [5], > 100 µM (inactive); in assay [6] it was > 100 µM (inactive). Besides, the GI50 in assay [7] is 0.0931 µM (active); in [8], > 100 µM (inactive); in assay [19], 0.303 µM (active); in assay [9] it was > 100 µM (inactive); in [10], > 100 µM (inactive); in assay [11] it was > 100 µM (inactive). In addition, the GI50 in [13] was 12.8 µM (inactive); in assay [14], 0.0535 µM (active); in assay [15], 0.0399 µM (active); in [16] it was > 100 µM (inactive); in assay [17], 0.546 µM (active); in assay [18] it was 0.193 µM (active).
In the case of `COC(=O)C[C@H]1[C@]2(C)C3=C(C)[C@H](c4ccoc4)CC3O[C@@H]2[C@@H]2OC(=O)[C@]3(C)CCC(=O)[C@@]1(C)[C@@H]23` (stereo partly specified), the GI50 in assay [1] was 47.1 µM (inactive); in [2] it was 52.5 µM (inactive); in assay [3], 22.8 µM (inactive); in [4], > 100 µM (inactive); in assay [5], 33.8 µM (inactive); in assay [6], 71.3 µM (inactive). The GI50 in assay [7] is 41.6 µM (inactive); in assay [8] it was > 100 µM (inactive); in assay [19], 40.4 µM (inactive); in assay [10] it was 14.5 µM (inactive); in assay [11], 27.5 µM (inactive); in assay [12], 53.5 µM (inactive). For the same compound, the GI50 in assay [13] is 48 µM (inactive); in assay [14], > 100 µM (inactive); in assay [15], 19.6 µM (inactive); in assay [17], 60.8 µM (inactive); in assay [18], 49.2 µM (inactive).
In the case of `COC(=O)C1=C(C(=O)OC)C2CCC1CC2=O` (stereo unspecified), the GI50 in assay [1], in assay [2], in assay [5], in assay [6], in assay [7] and in [8] was > 100 µM (inactive) each time. In addition, the GI50 in assay [19] is > 100 µM (inactive); in [9] it was > 100 µM (inactive); in assay [10], 70.6 µM (inactive); in assay [11], > 100 µM (inactive); in assay [12], > 100 µM (inactive); in assay [13], > 100 µM (inactive). Also, the GI50 in assay [14] was > 100 µM (inactive); in assay [15], 61.2 µM (inactive); in assay [16] it was > 100 µM (inactive); in [17], > 100 µM (inactive); in assay [18] it was > 100 µM (inactive).
For the compound `O=[N+]([O-])c1cc2[nH]nnc2c2nonc12`, the GI50 in assay [1] was 61.5 µM (inactive); in assay [2], 29.7 µM (inactive); in [3], 5.45 µM (inactive); in [4] it was 36.5 µM (inactive); in [5], 29.6 µM (inactive); in [6] it was 51.9 µM (inactive). Moreover, the GI50 is 22.4 µM (inactive) in assay [7]; 32.7 µM (inactive) in [8]; 35.2 µM (inactive) in [19]; 19.3 µM (inactive) in assay [9]; 14.3 µM (inactive) in assay [10]; 29 µM (inactive) in assay [11]. Also, the GI50 in [13] is 59 µM (inactive); in [14] it was 31.7 µM (inactive); in assay [15], 6.08 µM (inactive); in [16] it was 40.4 µM (inactive); in [17] it was 28.4 µM (inactive); in [18], > 10 µM (inactive).
With `COC(=O)[C@]1(C)CCC[C@]2(C)[C@@H](CCC(=O)C(C)C)[C@]3(C=O)O[C@@H]3C[C@H]21`, the GI50 was > 100 µM (inactive) in [1]; 14.8 µM (inactive) in assay [2]; 40.1 µM (inactive) in [3]; 29.8 µM (inactive) in assay [4]; 38.9 µM (inactive) in assay [5]; 32.1 µM (inactive) in assay [7]. In addition, the GI50 in [8] was 52 µM (inactive); in assay [19], 53.1 µM (inactive); in assay [9], 60.1 µM (inactive); in [10], 16.8 µM (inactive); in assay [11] it was > 100 µM (inactive); in [12], 19 µM (inactive). The GI50 in assay [13] is 44.1 µM (inactive); in [14], 36.1 µM (inactive); in [15], 30.7 µM (inactive); in assay [16], 51.8 µM (inactive); in assay [17], 33.7 µM (inactive); in assay [18] it was 50.2 µM (inactive).
